In brackets after ≈: the same amount, converted by molar mass.
How the values were obtained:
Type in all cases: functional
Bacillus subtilis [1] = assay: Antibacterial activity against Bacillus subtilis NCIM 2439 assessed as zone of inhibition at 1 ug/ml after 24 hrs by agar diffusion method; conditions: NCIM 2439, 24 h, read-out: IZ
Staphylococcus aureus [2] = assay: Antibacterial activity against Staphylococcus aureus NCIM 2079 assessed as zone of inhibition at 1 ug/ml after 24 hrs by agar diffusion method; conditions: NCIM 2079, 24 h, read-out: IZ
Escherichia coli [3] = assay: Antibacterial activity against Escherichia coli NCIM 2064 assessed as zone of inhibition at 1 ug/ml after 24 hrs by agar diffusion method; conditions: NCIM 2064, 24 h, read-out: IZ
Pseudomonas aeruginosa [4] = assay: Antibacterial activity against Pseudomonas aeruginosa NCIB 8650 assessed as zone of inhibition at 1 ug/ml after 24 hrs by agar diffusion method; conditions: NCIB 8650, 24 h, read-out: IZ
Escherichia coli [5] = assay: Antibacterial activity against Escherichia coli MTCC 1559 after 24 hrs by broth dilution method; conditions: MTCC 1559, 24 h
Bacillus subtilis [6] = assay: Antibacterial activity against Bacillus subtilis MTCC 1134 after 24 hrs by broth dilution method; conditions: MTCC 1134, 24 h
Pseudomonas aeruginosa [7] = assay: Antibacterial activity against Pseudomonas aeruginosa MTCC 1034 after 24 hrs by broth dilution method; conditions: MTCC 1034, 24 h
Pseudomonas aeruginosa [8] = assay: Antibacterial activity against Pseudomonas aeruginosa by broth dilution method
Escherichia coli [9] = assay: Antibacterial activity against Escherichia coli by broth dilution method
Staphylococcus aureus [10] = assay: Antibacterial activity against Staphylococcus aureus assessed as zone of inhibition at 1 mg/ml after 32 hrs by agar-well diffusion method; conditions: read-out: IZ
Escherichia coli [11] = assay: Antibacterial activity against Escherichia coli assessed as zone of inhibition at 1 mg/ml after 32 hrs by agar-well diffusion method; conditions: read-out: IZ
Pseudomonas aeruginosa [12] = assay: Antibacterial activity against Pseudomonas aeruginosa assessed as zone of inhibition at 1 mg/ml after 32 hrs by agar-well diffusion method; conditions: read-out: IZ
Klebsiella pneumoniae = assay: Antibacterial activity against Klebsiella pneumoniae assessed as zone of inhibition at 1 mg/ml after 32 hrs by agar-well diffusion method; conditions: read-out: IZ

SMILES	zone of inhibition at 1 µg/mL (Bacillus subtilis [1])	zone of inhibition at 1 µg/mL (Staphylococcus aureus [2])	zone of inhibition at 1 µg/mL (Escherichia coli [3])	zone of inhibition at 1 µg/mL (Pseudomonas aeruginosa [4])	further results
COC(=O)c1cc(-c2oc3ccc(Cl)cc3c2C)n(C(N)=O)n1	9 to 30 mm	9 to 30 mm	9 to 30 mm	9 to 30 mm	
Cc1c(-c2cc(C(=O)NN)nn2-c2ccccc2)oc2ccc(Cl)cc12	9 to 30 mm	9 to 30 mm	9 to 30 mm	9 to 30 mm	
Cc1ccc(-c2cc(-c3cc4ccccc4o3)nc(S)n2)s1					MIC (Escherichia coli [5]): 4.32 to 18.4 µg/mL (≈ 13.3 to 56.9 µM); MIC (Bacillus subtilis [6]): 4.32 to 18.4 µg/mL (≈ 13.3 to 56.9 µM); MIC (Pseudomonas aeruginosa [7]): 4.32 to 18.4 µg/mL (≈ 13.3 to 56.9 µM)
Nc1nc(-c2cc3cc(Br)ccc3o2)cc(-c2cccs2)n1					MIC (Escherichia coli [5]): 4.32 to 18.4 µg/mL (≈ 11.6 to 49.6 µM); MIC (Bacillus subtilis [6]): 4.32 to 18.4 µg/mL (≈ 11.6 to 49.6 µM); MIC (Pseudomonas aeruginosa [7]): 4.32 to 18.4 µg/mL (≈ 11.6 to 49.6 µM)
CCOC(=O)c1cc(-c2cc3cc(Br)ccc3o2)on1	9 to 30 mm	9 to 30 mm	9 to 30 mm	9 to 30 mm	
CCOC(=O)c1cc(-c2cc3ccccc3o2)on1	9 to 30 mm	9 to 30 mm	9 to 30 mm	9 to 30 mm	
Cc1ccc(-c2cc(-c3cc4cc(Br)ccc4o3)nc(N)n2)s1					MIC (Escherichia coli [5]): 4.32 to 18.4 µg/mL (≈ 11.2 to 47.8 µM); MIC (Bacillus subtilis [6]): 4.32 to 18.4 µg/mL (≈ 11.2 to 47.8 µM); MIC (Pseudomonas aeruginosa [7]): 4.32 to 18.4 µg/mL (≈ 11.2 to 47.8 µM)
COC(=O)c1cc(-c2oc3ccc(Cl)cc3c2C)[nH]n1	9 to 30 mm	9 to 30 mm	9 to 30 mm	9 to 30 mm	
Oc1nc(-c2cc3cc(Br)ccc3o2)cc(-c2cccs2)n1					MIC (Escherichia coli [5]): 4.32 to 18.4 µg/mL (≈ 11.6 to 49.4 µM); MIC (Bacillus subtilis [6]): 4.32 to 18.4 µg/mL (≈ 11.6 to 49.4 µM); MIC (Pseudomonas aeruginosa [7]): 4.32 to 18.4 µg/mL (≈ 11.6 to 49.4 µM)
Cc1ccc2c(-c3cc4cc(Br)ccc4oc3=O)coc2c1					MIC (Pseudomonas aeruginosa [8]): 6.25 to 100 µg/mL (≈ 17.6 to 282 µM); MIC (Escherichia coli [9]): 6.25 to 100 µg/mL (≈ 17.6 to 282 µM)
COC(=O)c1cc(-c2cc3cc(Br)ccc3o2)[nH]n1	9 to 30 mm	9 to 30 mm	9 to 30 mm	9 to 30 mm	
Cc1ccc(-c2csc3nc(-c4cc5ccccc5o4)cn23)cc1					zone of inhibition at 1000 µg/mL (Staphylococcus aureus [10]): 6 to 23 mm; zone of inhibition at 1000 µg/mL (Escherichia coli [11]): 6 to 23 mm; zone of inhibition at 1000 µg/mL (Pseudomonas aeruginosa [12]): 6 to 23 mm; zone of inhibition at 1000 µg/mL (Klebsiella pneumoniae): 6 to 23 mm
Cc1ccc(-c2cc(-c3cc4ccccc4o3)nc(O)n2)s1					MIC (Escherichia coli [5]): 4.32 to 18.4 µg/mL (≈ 14 to 59.8 µM); MIC (Bacillus subtilis [6]): 4.32 to 18.4 µg/mL (≈ 14 to 59.8 µM); MIC (Pseudomonas aeruginosa [7]): 4.32 to 18.4 µg/mL (≈ 14 to 59.8 µM)
Brc1ccc2oc(-c3cn4c(-c5cc6ccccc6o5)csc4n3)cc2c1					zone of inhibition at 1000 µg/mL (Staphylococcus aureus [10]): 6 to 23 mm; zone of inhibition at 1000 µg/mL (Escherichia coli [11]): 6 to 23 mm; zone of inhibition at 1000 µg/mL (Pseudomonas aeruginosa [12]): 6 to 23 mm; zone of inhibition at 1000 µg/mL (Klebsiella pneumoniae): 6 to 23 mm
Cc1ccc2occ(-c3cc4cc(Br)ccc4oc3=O)c2c1					MIC (Pseudomonas aeruginosa [8]): 6.25 to 100 µg/mL (≈ 17.6 to 282 µM); MIC (Escherichia coli [9]): 6.25 to 100 µg/mL (≈ 17.6 to 282 µM)
Cc1ccc2c(-c3cc4ccccc4oc3=O)coc2c1					MIC (Pseudomonas aeruginosa [8]): 6.25 to 100 µg/mL (≈ 22.6 to 362 µM); MIC (Escherichia coli [9]): 6.25 to 100 µg/mL (≈ 22.6 to 362 µM)
CCOC(=O)c1cc(-c2oc3ccc(Cl)cc3c2C)on1	9 to 30 mm	9 to 30 mm	9 to 30 mm	9 to 30 mm	
COC(=O)c1cc(-c2cc3ccccc3o2)n(C(N)=O)n1	9 to 30 mm	9 to 30 mm	9 to 30 mm	9 to 30 mm	
NNC(=O)c1cc(-c2cc3cc(Br)ccc3o2)n(-c2ccccc2)n1	9 to 30 mm	9 to 30 mm	9 to 30 mm	9 to 30 mm	
O=c1oc2ccccc2cc1-c1coc2c1ccc1ccccc12					MIC (Pseudomonas aeruginosa [8]): 6.25 to 100 µg/mL (≈ 20 to 320 µM); MIC (Escherichia coli [9]): 6.25 to 100 µg/mL (≈ 20 to 320 µM)
Sc1nc(-c2cc3cc(Br)ccc3o2)cc(-c2cccs2)n1					MIC (Escherichia coli [5]): 4.32 to 18.4 µg/mL (≈ 11.1 to 47.4 µM); MIC (Bacillus subtilis [6]): 4.32 to 18.4 µg/mL (≈ 11.1 to 47.4 µM); MIC (Pseudomonas aeruginosa [7]): 4.32 to 18.4 µg/mL (≈ 11.1 to 47.4 µM)
Fc1ccc(-c2csc3nc(-c4cc5ccccc5o4)cn23)cc1					zone of inhibition at 1000 µg/mL (Staphylococcus aureus [10]): 6 to 23 mm; zone of inhibition at 1000 µg/mL (Escherichia coli [11]): 6 to 23 mm; zone of inhibition at 1000 µg/mL (Pseudomonas aeruginosa [12]): 6 to 23 mm; zone of inhibition at 1000 µg/mL (Klebsiella pneumoniae): 6 to 23 mm
COC(=O)c1cc(-c2oc3ccc(Cl)cc3c2C)n(-c2ccccc2)n1	9 to 30 mm	9 to 30 mm	9 to 30 mm	9 to 30 mm	
COC(=O)c1cc(-c2cc3cc(Br)ccc3o2)n(-c2ccccc2)n1	9 to 30 mm	9 to 30 mm	9 to 30 mm	9 to 30 mm	
c1ccc2oc(-c3cn4c(-c5cc6ccccc6o5)csc4n3)cc2c1					zone of inhibition at 1000 µg/mL (Staphylococcus aureus [10]): 6 to 23 mm; zone of inhibition at 1000 µg/mL (Escherichia coli [11]): 6 to 23 mm; zone of inhibition at 1000 µg/mL (Pseudomonas aeruginosa [12]): 6 to 23 mm; zone of inhibition at 1000 µg/mL (Klebsiella pneumoniae): 6 to 23 mm
CCOC(=O)c1cc(-c2oc3c(Cl)cc(Cl)cc3c2C)on1	9 to 30 mm	9 to 30 mm	9 to 30 mm	9 to 30 mm	

Source: ChEMBL document CHEMBL4382229, “Benzofuran derivatives and their anti-tubercular, anti-bacterial activities” (Eur J Med Chem, 2019)
